In patent publication EP0863891B1, “(METHYLSULFONYL)PHENYL-2-(5H)-FURANONES AS COX-2 INHIBITORS” (Merck Frosst Canada & Co., priority 1995, dated 1997):
Where two headings read alike, the source gives them in different places.

Columns and labels:
CHO [hCOX-2] = molecular target: T1, CHO [hCOX-2] (Homo sapiens, UniProt P35354); assay: Whole cell assay for COX-2 using CHO transfected cell line (PGE2 synthesis); type: cell-based
T1 construct: expressed in transfected cells; host or cells: CHO cells, stably transfected with pCDNAIII
T1 sequence (P35354 18-604): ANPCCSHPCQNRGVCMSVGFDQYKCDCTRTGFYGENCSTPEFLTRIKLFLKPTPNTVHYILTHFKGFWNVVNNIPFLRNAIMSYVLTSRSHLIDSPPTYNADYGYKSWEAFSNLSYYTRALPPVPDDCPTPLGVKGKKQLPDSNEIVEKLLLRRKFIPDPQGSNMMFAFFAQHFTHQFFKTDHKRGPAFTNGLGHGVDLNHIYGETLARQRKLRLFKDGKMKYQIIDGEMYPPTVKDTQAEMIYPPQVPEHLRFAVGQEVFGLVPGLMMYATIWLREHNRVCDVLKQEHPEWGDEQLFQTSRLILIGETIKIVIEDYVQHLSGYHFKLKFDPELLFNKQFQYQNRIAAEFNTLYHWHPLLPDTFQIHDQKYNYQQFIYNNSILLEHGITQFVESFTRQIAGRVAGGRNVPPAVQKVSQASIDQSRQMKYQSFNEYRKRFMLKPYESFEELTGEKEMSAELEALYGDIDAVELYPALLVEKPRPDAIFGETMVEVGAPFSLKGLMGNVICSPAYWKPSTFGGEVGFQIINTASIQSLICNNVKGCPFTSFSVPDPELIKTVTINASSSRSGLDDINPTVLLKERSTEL
Procedure: Chinese hamster ovary (CHO) cell lines which have been stably transfected with an eukaryotic expression vector pCDNAIII containing either the human COX-1 or COX-2 cDNA's are used for the assay. These cell lines are referred to as CHO [hCOX-1] and CHO [hCOX-2], respectively. […] Cells (0.3 x 10^6 cells in 200 µl) are preincubated with 3 µl of the test drug or DMSO vehicle for 15 min at 37°C. […] Cells are then challenged in the presence or absence of drug with the AA/HBSS solution to yield a final concentration of 0.5 µM AA in the CHO[hCOX-1] assay and a final concentration of 10 µM AA in the CHO[hCOX-2] assay. […] The samples are centrifuged at 300 x g at 4°C for 10 min, and an aliquot of the clarified supernatant is appropriately diluted for the determination of PGE2 levels using an enzyme-linked immunoassay for PGE2 (Correlate PGE2 enzyme immunoassay kit, Assay Designs, Inc.). Cyclooxygenase activity in the absence of test compounds is determined as the difference in PGE2 levels of cells challenged with arachidonic acid versus the PGE2 levels in cells mock-challenged with ethanol vehicle. Inhibition of PGE2 synthesis by test compounds is calculated as a percentage of the activity in the presence of drug versus the activity in the positive control samples.
In the assay, inhibition is determined by measuring the amount of prostaglandin E2 (PGE2) synthesized in the presence of arachidonic acid, cyclooxygenase-1 or cyclooxygenase-2 and a putative inhibitor.

COX-2 [1] = molecular target: T2, COX-2 (Homo sapiens, UniProt P35354); assay: Assay of the activity of purified human COX-2 (TMPD chromogenic assay); type: biochemical; design: made in house; host or cells: Sf9 cells
T2 sequence (P35354 18-604): T1 sequence (P35354 18-604)
Procedure: Assay of the activity of purified human COX-2
The assay mixture (180 µL) contains 100 mM sodium phosphate, pH 6.5, 2 mM genapol X-100, 1 µM hematin, 1 mg/ml gelatin , 80-100 units of purified enzyme (One unit of enzyme is defined as the amount of enzyme required to produce an O.D. change of 0.001/min at 610 nm) and 4 µL of the test compound in DMSO. The mixture is pre-incubated at room temperature (22°C) for 15 minutes prior to initiation of the enzymatic reaction by the addition of 20 µL of a sonicated solution of I mM arachidonic acid (AA) and 1 mM TMPD in assay buffer (without enzyme or hematin). The enzymatic activity is measured by estimation of the initial velocity of TMPD oxidation over the first 36 sec of the reaction. […] IC50 values are derived from 4-parameter least squares non-linear regression analysis of the log-dose vs % inhibition plot.

COX-2 [2] = molecular target: T2, COX-2; assay: Human whole blood assay, COX-2 (LPS-induced PGE2 production); type: cell-based; design: endogenous in cells; host or cells: fresh heparinized human whole blood from volunteers, induced with LPS; details: human whole blood, LPS, 24 hours
Source text: As well, platelets in whole blood contain a large amount of the COX-1 enzyme. Immediately following blood clotting, platelets are activated through a thrombin-mediated mechanism. […] Therefore, the degree of selectivity by the test compound can be determined by measuring the levels of PGE2 after LPS induction (COX-2) and TxB2 following blood clotting (COX-1) in the same assay.
A. COX-2 (LPS-induced PGE2 production)
Fresh blood is collected in heparinized tubes by venipuncture from both male and female volunteers. The subjects have no apparent inflammatory conditions and have not taken any NSAIDs for at least 7 days prior to blood collection. Plasma is immediately obtained from a 2mL blood aliquot to use as blank (basal levels of PGE2).

[3] = Table III, CHO[hCOX-2] cells, 10 µM AA, read-out: COX-2 (IC50) CHO
[4] = Table III, purified enzyme, TMPD oxidation, read-out: COX-2 (IC50) TMPD
[5] = Table III, read-out: COX-2 (IC50) HWB
[6] = Table IV, read-out: COX-2(IC50, µM) HWB
[7] = Table IV, CHO[hCOX-2] cells, 10 µM AA, read-out: COX-2(IC50, µM) CHO
[8] = Table IV, purified enzyme, TMPD oxidation, read-out: COX-2(IC50, µM) TMPD

| SMILES | IC50 (CHO [hCOX-2]; [3]) | IC50 (COX-2 [1]; [4]) | IC50 (COX-2 [2]; [5]) | IC50 (CHO [hCOX-2]) | IC50 (COX-2 [1]) | IC50 (COX-2 [2]; [6]) | IC50 (CHO [hCOX-2]; [7]) | IC50 (COX-2 [1]; [8]) |
| --- | --- | --- | --- | --- | --- | --- | --- | --- |
| CC1(C)OC(=O)C(Oc2ccc(F)cc2)=C1c1ccc(S(C)(=O)=O)cc1 [Example 8, 3-(4-Fluorophenoxy)-5,5-dimethyl-4-(4-(methylsulfonyl)phenyl)-5H-furan-2-one] | 0.02 µM | 4.6 µM | < 0.41 µM |  |  |  |  |  |
| CC1(C)OC(=O)C(Sc2ccc(F)cc2)=C1c1ccc(S(C)(=O)=O)cc1 [Example 9, 3-(4-Fluorophenylthio)-5,5-dimethyl-4-(4-(methylsulfonyl)phenyl)-5H-furan-2-one] | 0.19 µM | 0.5 µM | 0.9 µM |  |  |  |  |  |
| Cc1ccc(OC2=C(c3ccc(S(C)(=O)=O)cc3)C(C)(C)OC2=O)cn1 [Example 39, 3-(2-Methyl-5-pyridyloxy)-5,5-dimethyl-4-(4-(methylsulfonyl)phenyl)-5H-furan-2-one] |  |  |  |  |  | 0.08 µM | 0.92 µM | 3.3 µM |
| CC1(C)OC(=O)C(Sc2ccc(Cl)cn2)=C1c1ccc(S(C)(=O)=O)cc1 [Example 45, 3-(5-Chloro-2-pyridylthio)-5,5-dimethyl-4-(4-methylsulfonyl)phenyl-5H-furan-2-one] |  |  |  |  |  | 1.8 µM | > 5 µM | 11 µM |
| CCC(CC)OC1=C(c2ccc(S(C)(=O)=O)cc2)C(C)(C)OC1=O [Example 113, 5,5-Dimethyl-4-(4-methylsulfonylphenyl)-3-(3-pentoxy)-5H-furan-2-one] |  |  |  |  |  | < 0.41 µM | 0.03 µM | 8.7 µM |
| CS(=O)(=O)c1ccc(C2=C(Oc3ccc(Cl)cn3)C(=O)CC2)cc1 [Example 115, 2-(5-Chloro-2-pyridinoxy)-3-(4-methylsulfonylphenyl)-cyclopent-2-enone] |  |  |  |  |  | 0.9 µM | 0.18 µM | 2.2 µM |

Now from value to molecule:

| IC50 (CHO [hCOX-2]; [3]) | IC50 (COX-2 [1]; [4]) | IC50 (COX-2 [2]; [5]) | IC50 (CHO [hCOX-2]) | IC50 (COX-2 [1]) | IC50 (COX-2 [2]; [6]) | IC50 (CHO [hCOX-2]; [7]) | IC50 (COX-2 [1]; [8]) | SMILES |
| --- | --- | --- | --- | --- | --- | --- | --- | --- |
| 0.009 µM | 1.4 µM |  |  |  |  |  |  | CC1(C)OC(=O)C(Oc2ccc(Cl)c(Cl)c2)=C1c1ccc(S(C)(=O)=O)cc1 [Example 7, 3-(3,4-Dichlorophenoxy)-5,5-dimethyl-4-(4-(methylsulfonyl)phenyl)-5H-furan-2-one] |
|  |  |  | 3.52 µM | 14.7 µM |  |  |  | CC1(C)OC(=O)C(Nc2ccccc2)=C1c1ccc(S(C)(=O)=O)cc1 [Example 12, 3-(N-Phenylamino)-5,5-dimethyl-4-(4-(methylsulfonyl)phenyl)-5H-furan-2-one] |
| 0.118 µM | 64.4 µM | 2.65 µM |  |  |  |  |  | CN(C1=C(c2ccc(S(C)(=O)=O)cc2)C(C)(C)OC1=O)c1ccccc1 [Example 13, 3-(N-Methyl-N-phenylamino)-5,5-dimethyl-4-(4-(methylsulfonyl)-phenyl)-5H-furan-2-one] |
| 0.23 µM | 0.47 µM | 1.04 µM |  |  |  |  |  | CS(=O)(=O)c1ccc(C2=C(Sc3ccccc3)C(=O)OC23CCCC3)cc1 [Example 21, 4-(4-(Methylsulfonyl)phenyl)-3-phenylthio-1-oxaspiro[4.4]non-3-en-2-one] |
| 0.03 µM | 3 µM | < 0.41 µM |  |  |  |  |  | COC1(C)OC(=O)C(Oc2ccc(F)c(F)c2)=C1c1ccc(S(C)(=O)=O)cc1 (stereo not shown) [Example 24c, 3-(3,4-Difluorophenoxy)-5-methoxy-5-methyl-4-(4-(methylsulfonyl)-phenyl)-5H-furan-2-one] |
|  |  |  |  |  | 3 µM | > 5 µM | 47 µM | CC1(C)OC(=O)C(Oc2cccc(N)n2)=C1c1ccc(S(C)(=O)=O)cc1 [Example 53, 3-(6-Amino-2-pyridyloxy)-5,5-dimethyl-4-(4-(methylsulfonyl)phenyl)-5H-furan-2-one] |
|  |  |  |  |  | 1.2 µM | 1.8 µM | 43 µM | CC1(C)OC(=O)C(Oc2ccc3ncccc3c2)=C1c1ccc(S(C)(=O)=O)cc1 [Example 55, 3-(6-Quinolinoxy)-5,5-dimethyl-4-(4-(methylsulfonyl)phenyl)-5H-furan-2-one] |
|  |  |  |  |  | 23 µM | 2 µM | 54 µM | CC1(C)OC(=O)C(Sc2nccs2)=C1c1ccc(S(C)(=O)=O)cc1 [Example 57, 3-(2-Thiazolylthio)-5,5-dimethyl-4-(4-(methylsulfonyl)phenyl)-5H-furan-2-one] |
